Results: patent publication US4532255A, “Amidine compounds and anticomplement agent comprising same” (Torii & Co., Ltd., priority 1980, dated 1985)
Values joined by “and” are separate entries in the source; they are usually repeats but may differ in a detail not shown here. Identical values can stand only once.

Assays:
[1] = molecular target: T1, Trypsin (Bos taurus, UniProt P00760); assay: Anti-trypsin activity (hydrolysis of TAME); type: biochemical; details: molar concentration inhibiting 50% of TAME hydrolysis; read-out: Trypsin ID50
T1 sequence (P00760 24-246): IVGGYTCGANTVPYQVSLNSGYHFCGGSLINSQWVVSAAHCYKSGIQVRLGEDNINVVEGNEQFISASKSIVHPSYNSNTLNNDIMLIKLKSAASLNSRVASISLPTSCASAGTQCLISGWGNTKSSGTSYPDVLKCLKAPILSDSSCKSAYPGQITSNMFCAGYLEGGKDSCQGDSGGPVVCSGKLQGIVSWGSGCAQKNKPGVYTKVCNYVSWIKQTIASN
Method: (§1) The anti-trypsin, anti-plasmin, anti-kallikrein and anti-thrombin activities were determined according to the method of Muramatsu et al. [M. Muramatsu, T. Onishi, S. Makino, Y. Hayashi and S. Fujii, J. of Biochem., 58, 214 (1965)]. […] The compound No. corresponds to the compound number shown in Examples.

[2] = test system: complement mediated hemolysis; assay: Inhibition of complement mediated hemolysis; type: cell-based
Method: The principle of this method is based on the fact that hemolysis is caused by the activation of complement, when the latter is added to a complex (immune complex) of erythrocytes and the antibody thereof. The degree of hemolysis varies in proportion to the amount of complement added. Therefore, when a known amount of complement admixed with a C1 esterase inhibitor is used, the hemolysis must be suppressed in proportion to the inhibitory activity.

[3] = molecular target: T2, C1s (Homo sapiens, UniProt P09871); assay: biochemical; details: ATEE hydrolysis; read-out: Anti-C1 activity, C1s ID50
T2 sequence (P09871 438-688 limits assumed): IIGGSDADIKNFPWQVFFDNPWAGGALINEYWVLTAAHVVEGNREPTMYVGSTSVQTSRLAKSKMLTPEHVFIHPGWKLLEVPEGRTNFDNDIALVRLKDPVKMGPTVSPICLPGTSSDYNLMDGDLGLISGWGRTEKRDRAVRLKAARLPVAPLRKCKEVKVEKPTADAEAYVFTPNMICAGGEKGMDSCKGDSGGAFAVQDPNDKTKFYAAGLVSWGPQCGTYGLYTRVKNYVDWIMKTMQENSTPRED
T2 sequence (P09871 16-437 partner limits assumed): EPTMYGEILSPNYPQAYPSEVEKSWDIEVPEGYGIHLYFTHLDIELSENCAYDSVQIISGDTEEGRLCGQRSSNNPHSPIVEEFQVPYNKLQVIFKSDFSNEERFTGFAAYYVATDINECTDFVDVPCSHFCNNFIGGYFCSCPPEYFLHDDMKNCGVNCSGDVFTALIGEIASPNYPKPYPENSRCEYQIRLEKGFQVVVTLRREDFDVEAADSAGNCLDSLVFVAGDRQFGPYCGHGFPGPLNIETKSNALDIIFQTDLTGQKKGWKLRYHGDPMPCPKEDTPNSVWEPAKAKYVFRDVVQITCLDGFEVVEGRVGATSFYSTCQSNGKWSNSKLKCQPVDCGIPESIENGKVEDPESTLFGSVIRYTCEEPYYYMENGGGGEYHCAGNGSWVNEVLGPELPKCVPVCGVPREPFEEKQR
Method: The anti-Cl esterase (Clr, Cls) activity was determined according to the method of Okamura et al. [K. Okamura, M. Muramatsu and S. Fujii, Biochem. Biophys. […] The figures in Table 2 have the following meanings:
Cls: Molar concentration of the test compound which inhibits 50% of the ability of Cls to hydrolyse ATEE (acetyltyrosin ethyl ester).

[4] = molecular target: T3, Thrombin (Homo sapiens, UniProt P00734); assay: biochemical; details: for inhibition at 10 µM: at 1×10^-5 M, read-out: Thrombin percentage inhibition
[5] = Toxicity, median lethal dose (LD50); details: in vivo
[6] = test system: Kallikrein; assay: Anti-kallikrein activity (hydrolysis of TAME); type: biochemical; details: molar concentration inhibiting 50% of TAME hydrolysis; read-out: Kallikrein ID50
[7] = test system: Forssman shock; assay: Forssman shock (survival time after hemolysin); type: in vivo, Male Hartlay guinea pig; details: 5 minutes before hemolysin
From the text: Quite different from other animals, guinea pig has on the surface of its organs a specific antigen called Forssman antigen which specifically reacts with the antibody of sheep erythrocyte. Forssman shock is based on the above principle and is a shock caused by the administration of antibody of sheep erythrocyte to a guinea pig. The Forssman shock was investigated in detail by many researchers and it was definitely shown that this shock is a model case where the complement plays the principal part and that the shock is associated with a classical pathway in which the complement system is activated progressively starting from C1. Since the participation of complement in autoimmune diseases has been established, the Forssman shock can be said to be a useful means for testing a drug for autoimmune diseases. A drug effective for the treatment of Forssman shock is useful as a drug of autoimmune diseases. [Anti-trypsin, anti-plasmin, anti-kallikrein and anti-thrombin activities]
The experiment was performed according to the method of I. G. Offerness et al. [Biochem. Pharmacol., 27 (14), 1873-1878 (1978)]. Male Hartlay guinea pig of about 300 g in body weight was used. Each guinea pig of the control group was administered intravenously with 0.5 ml (minimum dose to cause the shock) of hemolysin (commercial hemolysin, 5,000 U as assayed by the method of Ogata) and the time elapsed until death was observed. For the test group, each guinea pig was administered intravenously with the test compound 5 minutes before the administration of hemolysin and the time (second) elapsed until death was observed.

[8] = molecular target: T4, Plasmin (Homo sapiens, UniProt P00747); assay: Anti-plasmin activity (hydrolysis of TAME); type: biochemical; details: molar concentration inhibiting 50% of TAME hydrolysis; read-out: Plasmin ID50
T4 sequence (P00747 581-810 limits assumed, species assumed): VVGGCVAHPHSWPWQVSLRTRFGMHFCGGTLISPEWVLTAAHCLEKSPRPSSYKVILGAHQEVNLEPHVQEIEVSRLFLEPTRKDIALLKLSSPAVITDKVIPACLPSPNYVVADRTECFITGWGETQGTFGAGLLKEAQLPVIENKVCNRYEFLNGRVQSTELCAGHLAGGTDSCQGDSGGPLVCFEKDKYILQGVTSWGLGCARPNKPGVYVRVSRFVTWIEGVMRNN
T4 sequence (P00747 97-580 partner limits assumed, species assumed): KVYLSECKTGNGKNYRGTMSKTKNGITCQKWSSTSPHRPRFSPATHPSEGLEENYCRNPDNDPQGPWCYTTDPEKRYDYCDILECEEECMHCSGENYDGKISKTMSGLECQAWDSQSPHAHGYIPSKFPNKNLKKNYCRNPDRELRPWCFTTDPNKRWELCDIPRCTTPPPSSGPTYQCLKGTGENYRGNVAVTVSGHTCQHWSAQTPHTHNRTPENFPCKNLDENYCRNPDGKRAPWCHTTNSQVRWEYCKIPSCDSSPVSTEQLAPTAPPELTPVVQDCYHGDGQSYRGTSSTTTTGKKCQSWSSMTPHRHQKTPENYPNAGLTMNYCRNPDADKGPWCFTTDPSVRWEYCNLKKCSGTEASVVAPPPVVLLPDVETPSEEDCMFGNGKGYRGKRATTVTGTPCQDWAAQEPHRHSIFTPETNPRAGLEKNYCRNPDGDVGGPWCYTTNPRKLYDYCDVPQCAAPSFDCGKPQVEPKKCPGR
Method: as §1

[9] = molecular target: T5, C1r (Homo sapiens, UniProt P00736); assay: Anti-C1 esterase (C1r) activity (hydrolysis of AAME); type: biochemical
T5 sequence (P00736 464-705 limits assumed): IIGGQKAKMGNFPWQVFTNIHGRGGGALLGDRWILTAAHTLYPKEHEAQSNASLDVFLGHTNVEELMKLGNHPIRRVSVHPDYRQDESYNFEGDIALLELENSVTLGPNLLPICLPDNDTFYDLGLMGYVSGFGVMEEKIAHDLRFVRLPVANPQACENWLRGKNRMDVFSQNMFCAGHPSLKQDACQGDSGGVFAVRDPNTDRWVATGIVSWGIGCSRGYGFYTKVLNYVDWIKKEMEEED
T5 sequence (P00736 18-463 partner limits assumed): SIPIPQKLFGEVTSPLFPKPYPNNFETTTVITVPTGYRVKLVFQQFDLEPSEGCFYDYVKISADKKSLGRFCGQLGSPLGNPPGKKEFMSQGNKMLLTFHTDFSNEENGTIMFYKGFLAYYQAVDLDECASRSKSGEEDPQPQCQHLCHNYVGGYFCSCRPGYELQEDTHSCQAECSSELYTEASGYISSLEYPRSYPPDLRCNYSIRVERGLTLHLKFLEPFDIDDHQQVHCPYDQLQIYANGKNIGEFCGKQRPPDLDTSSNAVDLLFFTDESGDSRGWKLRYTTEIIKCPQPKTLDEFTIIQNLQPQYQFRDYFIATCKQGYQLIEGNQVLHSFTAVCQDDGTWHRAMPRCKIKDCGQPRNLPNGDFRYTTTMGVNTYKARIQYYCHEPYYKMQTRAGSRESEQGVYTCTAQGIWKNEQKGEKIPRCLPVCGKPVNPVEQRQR
Method: The anti-Cl esterase ([…]) activity was determined according to the method of Okamura et al. [K. Okamura, M. Muramatsu and S. Fujii, Biochem. Biophys.

[10] = molecular target: T1, Trypsin; details: G. Wagner et al., Pharmazie 1977; cited from earlier work
[11] = molecular target: T3, Thrombin; details: G. Wagner et al., Pharmazie 1977; cited from earlier work
[12] = molecular target: T4, Plasmin; details: G. Wagner et al., Pharmazie 1977; cited from earlier work
[13] = test system: complement; details: Y. Takada et al., Immunology 1978; cited from earlier work
[14] = molecular target: T2, C1s; assay: biochemical; details: at 1×10^-5 M; read-out: Anti-C1 activity, C1s percent inhibition

Structure (SMILES) | IC50 [1] [µM] | Inhibition of complement mediated hemolysis (%) ([2]; 1 × 10^-4) | Inhibition of complement mediated hemolysis (%) ([2]; 1 × 10^-5) | Inhibition of complement mediated hemolysis (%) ([2]; 1 × 10^-6) | Inhibition of complement mediated hemolysis (%) ([2]; 1 × 10^-7) | inhibition at 10 µM [4] [%] | IC50 [6] [µM] | IC50 [8] [µM] | other results
N=C(N)c1ccc2cc(OC(=O)c3ccc(CN)cc3)ccc2c1 [Compound 22, 6-amidino-2-naphthyl 4-aminomethylbenzoate] | 4 | 100 | 99 | 90 | 48 | 26 | 3 | 4 | IC50 [3]: 0.2 µM; LD50 ([5]; ip): 200 mg/kg; LD50 ([5]; po): 2500 mg/kg; Time elapsed until death, individual animal ([7]; 1.0 mg/kg intravenous): 240 s and 630 s and 250 s and 570 s and 440 s and 675 s; Time elapsed until death, average ([7]; 1.0 mg/kg intravenous, control average 465 (No. 27), 428 (No. 22)): 468 s; Time elapsed until death, individual animal ([7]; 3.0 mg/kg intravenous): 745 s and 1410 s and 600 s and 885 s and 455 s and 435 s; Time elapsed until death, average ([7]; 3.0 mg/kg intravenous, control average 428): 755 s; IC50 ([9]; AAME hydrolysis, read-out: Anti-C1 activity, C1r ID50): 0.3 µM
N=C(N)c1ccc2cc(O)ccc2c1 [6-amidino-2-naphthol, reference compound] | > 1000 |  |  |  |  |  | > 1000 | 440 | IC50 ([4]; molar concentration inhibiting 50% of TAME hydrolysis, read-out: Thrombin ID50): > 1000 µM; Trypsin inhibition in words [10]: inhibits trypsin, plasmin and thrombin; Thrombin inhibition in words [11]: inhibits trypsin, plasmin and thrombin; Plasmin inhibition in words [12]: inhibits trypsin, plasmin and thrombin
CC(=O)N[C@@H](CC(C)C)C(=O)N[C@@H](CC(C)C)C(=O)N[C@H](C=O)CCCNC(=N)N [Leupeptin, reference compound] |  | 97 | 52 | 0 | 0 |  |  |  | Anti-complement activity in words [13]: having an anti-complement activity
N=C(N)c1ccc2cc(OC(=O)CCc3ccc(N)cc3)ccc2c1 [Compound 51, 6-amidino-2-naphthyl 4-aminophenylpropionate] | 10 | 54 | 6 | 1 | 0 | 35 |  | 6 | inhibition at 10 µM [14]: 21%; inhibition at 10 µM ([9]; at 1×10^-5 M, read-out: Anti-C1 activity, C1r percent inhibition): 18%
